Laboratory results: patent US11702404B2, “GLP-1R modulating compounds” (priority 2019, dated 2023)
Read-outs that look alike come from different tables or passages of the source.

How the values were obtained:
GLP-1R = GLP-1R (Homo sapiens, UniProt P43220); assay: GLP-1R activation: cAMP increase in CHO cells stably expressing GLP-1R; assay type: cell-based
[1] = Microsomal stability, human liver microsomes (predicted hepatic clearance); settings: predicted from in vitro microsomal stability data
[2] = cAMP increase, CHO cells stably expressing GLP-1R, 10 point dose response, 30 minutes incubation, read-out: EC50

Sequence of GLP-1R (P43220 24-463): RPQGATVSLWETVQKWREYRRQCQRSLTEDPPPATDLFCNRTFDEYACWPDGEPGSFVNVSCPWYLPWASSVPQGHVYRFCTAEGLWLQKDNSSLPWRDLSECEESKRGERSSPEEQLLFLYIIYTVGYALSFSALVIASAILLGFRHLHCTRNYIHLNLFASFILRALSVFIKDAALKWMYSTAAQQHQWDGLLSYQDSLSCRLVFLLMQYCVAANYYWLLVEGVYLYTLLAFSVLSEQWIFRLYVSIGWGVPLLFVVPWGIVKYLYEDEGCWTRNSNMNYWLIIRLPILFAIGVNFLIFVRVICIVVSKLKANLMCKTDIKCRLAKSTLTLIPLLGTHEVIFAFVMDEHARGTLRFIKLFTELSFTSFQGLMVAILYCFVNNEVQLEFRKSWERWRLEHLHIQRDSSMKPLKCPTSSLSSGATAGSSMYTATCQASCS

Compound	EC50 (GLP-1R; [2])	Predicted Hepatic Clearance (Pred. Cl.) [1]	EC50 (GLP-1R; read-out: EC50)	EC50 (GLP-1R; EC50 (nM))
COCCn1c(Cc2ccc(-c3cccc(OCc4ccc(C#N)cc4F)n3)cc2-c2ccccc2)nc2ccc(C(=O)O)cc21 [Example 184, 2-((5-(6-((4-cyano-2-fluorobenzyl)oxy)pyridin-2-yl)-[1,1′-biphenyl]-2-yl)methyl)-1-(2-methoxyethyl)-1H-benzo[d]imidazole-6-carboxylic acid]	369 nM	<1.83 mL/min/kg		
O=C(O)c1cc(F)c2nc(Cc3cc(F)c(-c4cccc(OCc5ccc(Cl)nc5)n4)cc3F)n(C[C@@H]3CCO3)c2c1 [Example 658]	0.11 nM	3 mL/min/kg		
COCCn1c(Cc2c(F)cc(-c3cccnc3OCc3ccc(Cl)cc3F)cc2F)nc2ccc(C(=O)O)cc21 [Example 174, 2-(4-(2-((4-chloro-2-fluorobenzyl)oxy)pyridin-3-yl)-2,6-difluorobenzyl)-1-(2-methoxyethyl)-1H-benzo[d]imidazole-carboxylic acid]	32.9 nM	5.67 mL/min/kg		
N#Cc1ccc(COc2ncc(F)c(-c3cc(F)c(Cc4nc5c(F)cc(C(=O)O)cc5n4CC4(CF)CC4)cc3F)n2)c(F)c1 [Example 883]	0.3 nM	7.5 mL/min/kg		
N#Cc1ccc(COc2cccc(-c3ccc(Cc4nc5ccc(C(=O)NS(=O)(=O)C6CC6)cc5n4CC4(CF)CC4)c(F)c3)n2)c(F)c1 [Example 57, 2-(4-(6-((4-cyano-2-fluorobenzyl)oxy)pyridin-2-yl)-2-fluorobenzyl)-N-(cyclopropylsulfonyl)-1-((1-(fluoromethyl)cyclopropyl)methyl)-1H-benzo[d]imidazole-6-carboxamide]	6.7 nM	<1.83 mL/min/kg		
N#Cc1ccc(COc2cccc(-c3cc(F)c(Cc4nc5ccc(C(=O)O)cc5n4Cc4ccon4)cc3F)n2)c(F)c1 [Example 486, 2-(4-(6-((4-cyano-2-fluorobenzyl)oxy)pyridin-2-yl)-2,5-difluorobenzyl)-1-(isoxazol-3-ylmethyl)-1H-benzo[d]imidazole-6-carboxylic acid]	1.05 nM	5 mL/min/kg		
N#Cc1ccc(COc2cccc(-c3ccc(Cc4nc5ccc(C(=O)O)cc5n4Cc4ncco4)nc3)n2)c(F)c1 [Example 601, 2-((6-((4-cyano-2-fluorobenzyl)oxy)-[2,3′-bipyridin]-6′-yl)methyl)-1-(oxazol-2-ylmethyl)-1H-benzo[d]imidazole-6-carboxylic acid]	31.7 nM	3.83 mL/min/kg		
CS(=O)(=O)N1CC[C@@H]1Cn1c(Cc2ccc(-c3cccc(OCc4ccc(C#N)cc4F)n3)cc2F)nc2ccc(C(=O)O)cc21 [Example 888, 2-[[4-[6-[(4-cyano-2-fluoro-phenyl)methoxy]-2-pyridyl]-2-fluoro-phenyl]methyl]-3-[[(2R)-1-methylsulfonylazetidin-2-yl]methyl]benzimidazole-5-carboxylic acid]		5.83 mL/min/kg	6.01 nM	
C[C@H](O)Cn1c(Cc2cc(F)c(-c3cccc(OCc4ccc(C#N)cc4F)n3)cc2F)nc2ccc(C(=O)O)cc21 [Example 723]		3.5 mL/min/kg		5.19 nM
CNC(=O)C(Cn1c(Cc2ccc(-c3cccc(OCc4ccc(C#N)cc4F)n3)cc2F)nc2ccc(C(=O)O)cc21)OC (single isomer, unassigned) [Example 337, 2-(4-(6-((4-cyano-2-fluorobenzyl)oxy)pyridin-2-yl)-2-fluorobenzyl)-1-(2-methoxy-3-(methylamino)-3-oxopropyl)-1H-benzo[d]imidazole-6-carboxylic acid]	13.7 nM	4.83 mL/min/kg		
COCCn1c(Cc2c(F)cc(-c3cccc(OCc4ccc(C(F)F)cc4F)n3)c(F)c2F)nc2ccc(C(=O)O)cc21 [Example 750]	1.26 nM	4.17 mL/min/kg		
CC(C)(C)C(=O)N1CC[C@@H]1Cn1c(Cc2ccc(-c3cccc(OCc4ccc(C#N)cc4F)n3)cc2F)nc2ccc(C(=O)O)cc21 [Example 887, 2-[[4-[6-[(4-cyano-2-fluoro-phenyl)methoxy]-2-pyridyl]-2-fluoro-phenyl]methyl]-3-[[(2R)-1-(2,2-dimethylpropanoyl)azetidin-2-yl]methyl]benzimidazole-5-carboxylic acid]		8.83 mL/min/kg	8310 nM	
COCCn1c(Cc2ccc(-c3cccc(OCc4ccc(C#N)cc4F)n3)c(Cl)c2)nc2ccc(C(=O)O)cc21 [Example 101, 2-(3-chloro-4-(6-((4-cyano-2-fluorobenzyl)oxy)pyridin-2-yl)benzyl)-1-(2-methoxyethyl)-1H-benzo[d]imidazole-6-carboxylic acid]	25.9 nM	6.7 mL/min/kg		
COCCn1c(Cc2cc(F)c(-c3cccc(OCc4ccc(C)cn4)n3)cc2F)nc2ccc(C(=O)O)cc21 [Example 803]	5.95 nM	13.3 mL/min/kg		
N#Cc1ccc(COc2cccc(-c3ccc(Cc4nc5ccc(C(=O)O)cc5n4CC4(C(F)F)CC4)cc3F)n2)c(F)c1 [Example 528, 2-(4-(6-((4-cyano-2-fluorobenzyl)oxy)pyridin-2-yl)-3-fluorobenzyl)-1-((1-(difluoromethyl)cyclopropyl)methyl)-1H-benzo[d]imidazole-6-carboxylic acid]	0.45 nM	7.5 mL/min/kg		
COc1cc(C#N)ccc1COc1nccc(-c2cc(F)c(Cc3nc4ccc(C(=O)O)nc4n3CC3(CF)CC3)cc2F)n1 [Example 119, 2-(4-(2-((4-cyano-2-methoxybenzyl)oxy)pyrimidin-4-yl)-2,5-difluorobenzyl)-3-((1-(fluoromethyl)cyclopropyl)methyl)-3H-imidazo[4,5-b]pyridine-5-carboxylic acid]	0.56 nM	<1.83 mL/min/kg		
COC[C@@H](Cn1c(Cc2cc(F)c(-c3cccc(OCc4ccc(C#N)cc4F)n3)cc2F)nc2ccc(C(=O)O)cc21)OC [Example 621]		10.7 mL/min/kg		17.4 nM
COCCn1c(Cc2cc(F)c(-c3cccc(OCc4ccc(Br)c5c4COC5)n3)cc2F)nc2ccc(C(=O)O)cc21 [Example 874]	34.7 nM	1.83 mL/min/kg		
COCCn1c(Cc2cc(F)c(-c3cccc(OCc4cccc(-c5cnn(C)c5)c4)n3)cc2F)nc2ccc(C(=O)O)cc21 [Example 913]	112 nM	3.83 mL/min/kg		
CC1(Cn2c(Cc3ccc(-c4cccc(OCc5ccc(C#N)cc5F)n4)cc3F)nc3ccc(C(=O)O)cc32)CC1 [Example 9, 2-(4-(6-((4-cyano-2-fluorobenzyl)oxy)pyridin-2-yl)-2-fluorobenzyl)-1-((1-methylcyclopropyl)methyl)-1H-benzo[d]imidazole-6-carboxylic acid]	1.75 nM	<1.83 mL/min/kg		
CO[C@@H]1CN(C(C)=O)C[C@H]1n1c(Cc2cc(F)c(-c3cccc(OCc4ccc(C#N)cc4F)n3)cc2F)nc2ccc(C(=O)O)cc21 [Example 920]		4.67 mL/min/kg	58.5 nM	
COCCn1c(Cc2ccc(-c3ccc(Cl)c(OCc4ccc(C#N)cc4F)n3)cc2F)nc2ccc(C(=O)O)cc21 [Example 122, 2-(4-(5-chloro-6-((4-cyano-2-fluorobenzyl)oxy)pyridin-2-yl)-2-fluorobenzyl)-1-(2-methoxyethyl)-1H-benzo[d]imidazole-6-carboxylic acid]	30.6 nM	<1.83 mL/min/kg		
N#CCC1(Cn2c(Cc3ccc(-c4cccc(OCc5ccc(C#N)cc5F)n4)c(F)c3)nc3ccc(C(=O)O)cc32)CC1 [Example 530, 2-(4-(6-((4-cyano-2-fluorobenzyl)oxy)pyridin-2-yl)-3-fluorobenzyl)-1-((1-(cyanomethyl)cyclopropyl)methyl)-1H-benzo[d]imidazole-6-carboxylic acid]	0.43 nM	10.5 mL/min/kg		
CN1C[C@@](C)(Cn2c(Cc3cc(F)c(-c4cccc(OCc5ccc(C#N)cc5F)n4)cc3F)nc3ccc(C(=O)O)cc32)C1=O (racemic) [Example 272, 2-(4-(6-((4-cyano-2-fluorobenzyl)oxy)pyridin-2-yl)-2,5-difluorobenzyl)-1-((1,3-dimethyl-2-oxoazetidin-3-yl)methyl)-1H-benzo[d]imidazole-6-carboxylic acid]	1.66 nM	9.67 mL/min/kg		
COCC1(n2c(Cc3ccc(-c4cccc(OCc5ccc(C#N)cc5F)n4)cc3F)nc3ccc(C(=O)O)cc32)CC1 [Example 377, 2-(4-(6-((4-cyano-2-fluorobenzyl)oxy)pyridin-2-yl)-2-fluorobenzyl)-1-(1-(methoxymethyl)cyclopropyl)-1H-benzo[d]imidazole-6-carboxylic acid]	10.9 nM	3.17 mL/min/kg		
Cn1ccnc1Cn1c(Cc2ccc(-c3cccc(OCc4ccc(C#N)cc4F)n3)cc2F)nc2ccc(C(=O)O)cc21 [Example 607]	108 nM	3 mL/min/kg		
N#Cc1ccc(COc2cccc(-c3cc(F)c(Cc4nc5ccc(C(=O)NS(=O)(=O)C6CC6)cc5n4C[C@@H]4CCO4)cc3F)n2)c(F)c1 [Example 163, (S)-2-(4-(6-((4-cyano-2-fluorobenzyl)oxy)pyridin-2-yl)-2,5-difluorobenzyl)-N-(cyclopropylsulfonyl)-1-(oxetan-2-ylmethyl)-1H-benzo[d]imidazole-6-carboxamide]	1.41 nM	5 mL/min/kg		
COCCn1c(Cc2ccc(-c3cccc(OCc4ccc(C#N)cc4F)n3)cc2C#Cc2ccccc2)nc2ccc(C(=O)O)cc21 [Example 237, 2-(4-(6-((4-cyano-2-fluorobenzyl)oxy)pyridin-2-yl)-2-(phenylethynyl)benzyl)-1-(2-methoxyethyl)-1H-benzo[d]imidazole-6-carboxylic acid]	19.2 nM	11.2 mL/min/kg		
